Laboratory results from patent publication US5622688A, “Macrocyclic chelants, their chelates and uses thereof in the diagnostic field” (Dibra S.p.A., priority 1994, dated 1997).
Where two headings read alike, the source gives them in different places.

Legend:
mice = assay: Acute toxicity LD50 i.v. in mice; assay type: in vivo
Excerpt: Some of the available data relative to Gd chelates of this invention are detailed in Example 4, together with a comparison with the known data of the following commercially available products: DOTAREM®, OMNISCAN®, PROHANCE®. The datum relative to Gd-DTPA-bismethylammide, Gd-DTPA-BMA, which is the active ingredient of OMNISCAN®, is also reported, even if there is remarkable difference in the LD50 values. Such a difference is known to be due to the simultaneous presence in OMNISCAN® of Gd-DTPA-BMA 500 mM, and of the complex of the same ligand with sodium and calcium, Na[CaDTPA-BMA], at a 25 mM concentration. Therefore the comparison of this last datum with those available for the compounds of this invention is more significant as far as determination homogeneity is concerned.

[1] = Osmolality of aqueous solutions; assay type: physicochemical
Charge = assay type: physicochemical; details: Table I, own compound
[2] = cited from earlier work; for formal charge: background, gadolinium chelate before salification

## CC(C(=O)NC(CCCO)(CCCO)CCCO)N1CCN(CC(=O)[O-])CCN(CC(=O)[O-])CCN(CC(=O)[O-])CC1.[Gd+3] (stereo not shown) [Example 1, Gadolinium complex of 10-[2-[[1,1-bis(3-hydroxypropyl)-4-hydroxybutyl]amino]-1-methylene-2-oxoethyl]-1,4,7,10-tetraazacyclododecan-1,4,7-triacetic acid]
mice
  LD50 (mice) i.v.: 23.4 mmol/kg

## C=C(C(=O)NCCOCCO)N1CCN(CC(=O)[O-])CCN(CC(=O)[O-])CCN(CC(=O)[O-])CC1.[Gd+3] [Example 2, Gadolinium complex of 10-[2-[[2-(2-hydroxyethoxy)ethyl]amino]-1-(methylene)-2-oxoethyl]-1,4,7,10-tetraazacyclododecan-1,4,7-triacetic acid]
mice
  LD50 (mice) i.v.: 37.6 mmol/kg
[1]
  OSMOLALITY: 855 mOsm/kg H2 O
Charge
  CHARGE: non-ionic

## O=C([O-])CN1CCN(CC(=O)[O-])CCN(CC(=O)O)CCN(CC(=O)[O-])CC1.[Gd+3] [Gd-DOTA]
[2]
  formal charge: -1

## O=C([O-])CN(CCN(CC(=O)[O-])CC(=O)O)CCN(CC(=O)[O-])CC(=O)O.[Gd+3] [Gd-DTPA]
[2]
  formal charge: -2

## CNC(=O)CN(CCN(CCN(CC(=O)[O-])CC(=O)NC)CC(=O)[O-])CC(=O)[O-].[Gd+3] [GdDTPA-BMA, Gd-DTPA-bismethylamide]
[2]; Table I, from the data available on the product brochures
  CHARGE: non-ionic
